Patent US20150366523A1, “NEURONAL IMAGING AND TREATMENT” (priority 2013, published 2015)

What was measured:
prostate stromal cells = conditions: in vitro; cited from earlier work
[1] = system: adrenergic synapses of the sympathetic nervous system; assay: SPECT imaging of I-123-radiolabeled mIBG distribution in the heart, combined with x-ray CT; format: in vivo; conditions: human patient, I-123-mIBG, D-SPECT plus CT
Experimental: A human patient was administered I-123-radiolabeled mIBG, a radioactive tracer for adrenergic synapses of the sympathetic nervous system. An image based on mIBG distribution was obtained by SPECT using a D-SPECT® Cardiac Imaging System (Spectrum Dynamics, Israel). The anatomy of the heart was determined by performing x-ray CT imaging and segmenting the obtained x-ray CT images. The x-ray CT data was then combined with the SPECT data so as to construct an image showing mIBG distribution in the heart.

Structure (SMILES)	mitogenic effect on prostate stromal cells (prostate stromal cells)	mIBG activity in left atrium (site of maximal activity level) ([1]; left atrium, FIGS. 6A-6D)	mIBG activity in right ventricle (site of maximal activity level) ([1]; right ventricle, FIGS. 8A-8B)
NC[C@H](O)c1ccc(O)c(O)c1 [Norepinephrine, norepinephrine]	direct mitogenic effect		
N=C(N)NCc1cccc(I)c1 [mIBG, m-iodobenzylguanidine]		maximal activity level in the left inferior pulmonary vein	maximal activity level in the interventricular septum
